In ChEMBL document CHEMBL1131081, “Beta-amino-thiols inhibit the zinc metallopeptidase activity of tetanus toxin light chain” (J Med Chem, 1998):

Assay: Binding affinity against S1 subsite of the Tetanus neurotoxin (TeNt)
Parameters: species or system Clostridium tetani

Compound | Ki [µM]
NC(CS)c1cccc(S(N)(=O)=O)c1 (stereo unspecified) | 35
NCC(CS)CCS(=O)(=O)O (stereo unspecified) | 500
NC(=O)c1cccc(C(N)CS)c1 (stereo unspecified) | 125
NC(CS)CCS(N)(=O)=O (stereo unspecified) | 100
NC(CS)c1cccc(S(=O)(=O)O)c1 (stereo unspecified) | 40
CN(C)C(=O)c1cccc(C(N)CS)c1 (stereo unspecified) | 250
